System: bone resorption
Experiment: Concomitant administration of test compound and estrogen: bone resorption marker blood ICTP
Assay type: in vivo, ovariectomized rats
Conditions: for Blood ICTP concentration: mean ± S.D., n = 5
Experimental: The 13-week-old ovariectomized rats were divided into 4 groups of a control group (Group A), an estrogen administration group (Group B), a test compound administration group (Group C), and a test compound and estrogen concomitant administration group (Group D). One sham control group (E group) subjected to a sham surgery was also established. Estradiol was dissolved in 5% benzyl alcohol-corn oil and subcutaneously administered to an estrogen administration groups (Group B and Group D) at the dose of 10 μg/kg. 5% Benzyl alcohol-corn oil was subcutaneously administered to groups (Group A and Group C) free from administration of estrogen. The compound of Example 1-1 was suspended in 0.5% methyl cellulose solution and orally administered to groups (Group C and Group D) to be administered with the test compound at the dose of 3 mg/kg. As regards the groups (Group A and Group B) free from administration of the test compound, 0.5% methyl cellulose solution was orally administered. On day 13 from the start of the administration, the blood was drawn in each group from the tail vein, and serum was obtained. ICTP, which is a blood bone resorption marker, was measured using a commercially available ELISA kit (“RatLaps ELISA kit”, Nordic Bioscience Diagnostics).

## Cc1ccc(CC(C)(C)NC[C@@H](O)CO[C@H](C)c2ccccc2-c2ccc(C(=O)O)c(C)c2)cc1F [Example 1-1, 2′-[(1R)-[(2R)-3-[[1-(3-Fluoro-4-methylphenyl)-2-methylpropan-2-yl]amino]-2-hydroxypropoxy]ethyl]-3-methylbiphenyl-4-carboxylic acid]
Table 65, concomitant with estrogen
  Effect of concomitant administration on suppression of ICTP increase by estrogen: did not show changes in the ability to suppress estrogen
Day 13, Group D: Example 1-1 3 mg/kg oral and estradiol 10 μg/kg s.c. concomitant
  Blood ICTP concentration: 21.77 ± 3.34 ng/mL
Day 13, exclusive administration (Group B estradiol 10 μg/kg s.c.; Group C Example 1-1 3 mg/kg oral)
  Blood ICTP concentration: 26.10 ± 3.45 ng/mL

— patent publication US7304174B2, “CaSR antagonist” (Japan Tobacco Inc., priority 2003, dated 2007)
